Key:
Format in all cases: functional
Bipolaris oryzae [1] = test: Antifungal activity against Bipolaris oryzae assessed as fungus colony inhibition at 100 ppm measured after 96 hr by agar dilution method
Bipolaris oryzae [2] = test: Antifungal activity against Bipolaris oryzae assessed as fungus colony inhibition at 1000 ppm measured after 96 hr by agar dilution method
Aspergillus niger [3] = test: Antifungal activity against Aspergillus niger assessed as fungus colony inhibition at 100 ppm measured after 96 hr by agar dilution method
Aspergillus niger [4] = test: Antifungal activity against Aspergillus niger assessed as fungus colony inhibition at 10 ppm measured after 96 hr by agar dilution method
Aspergillus niger [5] = test: Antifungal activity against Aspergillus niger assessed as fungus colony inhibition at 1000 ppm measured after 96 hr by agar dilution method
Bipolaris oryzae [6] = test: Antifungal activity against Bipolaris oryzae assessed as fungus colony inhibition at 10 ppm measured after 96 hr by agar dilution method

Structure (SMILES) | inhibition at 100 ppm (Bipolaris oryzae [1]) | inhibition at 1000 ppm (Bipolaris oryzae [2]) | inhibition at 100 ppm (Aspergillus niger [3]) | inhibition at 10 ppm (Aspergillus niger [4]) | inhibition at 1000 ppm (Aspergillus niger [5]) | inhibition at 10 ppm (Bipolaris oryzae [6])
COc1ccc(-c2nnc(NC(=S)NC(=O)COc3ccc(C)cc3)o2)cc1 | 55.6% | 75.3% | 56.9% | 39.2% | 76.3% | 38.5%
COc1ccc(-c2nnc(NC(=S)NC(=O)COc3ccc([N+](=O)[O-])cc3)o2)cc1 | 61.6% | 75.2% | 64.1% | 50.2% | 78.7% | 47.4%
Cc1cccc(OCC(=O)NC(=S)Nc2nnc(-c3ccccc3)o2)c1 | 50.4% | 69.8% | 50.2% | 34.7% | 71.3% | 36.6%
Cc1ccc(OCc2nc(=S)nc3oc(-c4ccccc4)nn23)cc1 | 52.5% | 72.6% | 56.7% | 40.9% | 75.3% | 40.3%
Cc1ccc(C(C)C)c(OCc2nc(=S)nc3oc(-c4ccccc4)nn23)c1 | 60.4% | 74.8% | 62.1% | 48.2% | 78.6% | 48.6%
COc1ccc(-c2nn3c(COc4cc(C)ccc4C(C)C)nc(=S)nc3o2)cc1 | 64.8% | 80.2% | 66.4% | 52.6% | 82.5% | 52.3%
O=C(COc1ccc([N+](=O)[O-])cc1)NC(=S)Nc1nnc(-c2ccccc2)o1 | 64.7% | 81.2% | 67.9% | 54.3% | 85.2% | 50.8%
COc1ccc(-c2nn3c(COc4ccc(C)cc4)nc(=S)nc3o2)cc1 | 40.5% | 60.8% | 42.7% | 32.6% | 62.3% | 30.9%
COc1ccc(-c2nnc(NC(=S)NC(=O)COc3cc(C)ccc3C(C)C)o2)cc1 | 50.9% | 70.8% | 61.6% | 46.3% | 72.4% | 40.2%
O=C(COc1ccccc1[N+](=O)[O-])NC(=S)Nc1nnc(-c2ccccc2)o1 | 65.4% | 80.2% | 68.4% | 54.8% | 85.6% | 51.6%
Cc1ccc(OCC(=O)NC(=S)Nc2nnc(-c3ccccc3)o2)cc1 | 50.8% | 70.1% | 52.6% | 35.8% | 72.2% | 37.2%
COc1ccc(-c2nn3c(COc4ccc([N+](=O)[O-])cc4)nc(=S)nc3o2)cc1 | 60.5% | 77.9% | 58.5% | 41.5% | 75.8% | 48.5%
O=[N+]([O-])c1ccccc1OCc1nc(=S)nc2oc(-c3ccccc3)nn12 | 55.4% | 74.4% | 52.2% | 40.3% | 70.2% | 40.2%
Cc1ccc(C(C)C)c(OCC(=O)NC(=S)Nc2nnc(-c3ccccc3)o2)c1 | 45.3% | 66.6% | 48.2% | 33.7% | 69.3% | 31.8%
Cc1cccc(OCc2nc(=S)nc3oc(-c4ccccc4)nn23)c1 | 53.2% | 72.5% | 57.3% | 41.5% | 76.2% | 36.7%
COc1ccc(-c2nn3c(COc4cccc(C)c4)nc(=S)nc3o2)cc1 | 40.2% | 60.3% | 42.3% | 32% | 62.5% | 30.4%
O=[N+]([O-])c1ccc(OCc2nc(=S)nc3oc(-c4ccccc4)nn23)cc1 | 56.2% | 73.4% | 53.3% | 40.7% | 71.2% | 41.5%
COc1ccc(-c2nnc(NC(=S)NC(=O)COc3cccc(C)c3)o2)cc1 | 56.4% | 75.6% | 55.3% | 39.4% | 77.2% | 40.5%
